Test results published in patent publication US20240009150A1, “CAPSAICYNS IN THE TREATMENT OF LEAKY GUT” (AXICHEM AB [SE]/[SE], priority 2020, published 2024).
Entries after “also recorded” stand apart in the source; their conditions may differ. Like-named read-outs stand apart in the source and are kept apart here. Marks after values point to notes of the source that are not given here.

Tests used:
Type in all cases: cell-based
[1] = test system: Salmonella enterica subsp. enterica serovar Paratyphi C (ATCC® BAA 1714™); assay: Inhibition of biofilm formation, crystal violet staining assay (Example 5); conditions: for Biofilm (OD 595 nm): 24 hr; for Biofilm (OD 595 nm) / biofilm formed (CVSA), in words: 30° C.; for biofilm formed (CVSA), in words: 32 and 8 μg/ml
Protocol: (§1) Biofilm formation was quantified with modifications using the method described by Stepanovic et al. (Journal of Microbiological Methods, 2000, 40(2), 175-19) with modifications. Using a 96-well microplate duplicate the test solutions were filled at the above selected doses. Cultures were grown for 18 hr in LB at 30° C. and adjusted to OD 0.1 at 600 nm. 20 μL of the culture were added into each well and the remainder of the volume to 200 μL per well was filled with LB. Unused external wells were filled with 200 μL of sterile water to prevent evaporation.
(§2) After 24 hr of incubation, supernatants were discarded, and the wells were washed three times with 200 μL of sterile phosphate buffered saline (PBS). Bacteria adhered to the wells were fixed with 200 μL of methanol for 15 min, the methanol was discarded, and the plates dried at 25° C.
(§3) Each well was stained with 200 μL of 0.3% (w/v) crystal violet solution for 5 min at 25° C. Crystal violet excess was pipetted out, and the wells were rinsed five times with sterile PBS. 200 μL of 33% (v/v) glacial acetic acid were added to the wells for 30 min to solubilise the dye adhered to the cell walls. Optical density (OD) was measured at 595 nm using a microplate spectrophotometer as a direct measure of biofilm formation. P. aeruginosa in 3% DMSO will be used as the negative control.
A stock solution of 1000 μg of phenylcapsaicin and capsaicin was prepared by dissolving 1000 μg in 100 μl of ethanol and 900 μl of sterile water. The stock solutions were sequentially diluted with double and then quadruple volumes of solvent (10% aqueous ethanol solution) to yield 500/125/31.25 (32)/7.81 (8) μg/ml test solutions.
(§4) ATCC® BAA 1714™ was used to determine the biofilm inhibition activity. Inducer N-hexanoyl homoserine lactone (C6-HSL) was purchased from Sigma-Aldrich. ATCC® BAA 1714™ was cultivated in Luria-Bertani (LB) medium (LB, 5 g yeast extract, 10 g tryptone, 5 g NaCl, 1 L water) at 37° C. overnight under aerobic conditions.
Crystal violet staining assay was performed as in Experiment 3, using ATCC® BAA 1714™ in 3% DMSO as the control.

[2] = test system: Salmonella enterica subsp. enterica serovar Paratyphi C (ATCC® BAA1714™); assay: Inhibition of biofilm formation with different capsaicyn compounds, crystal violet staining assay (Example 6); conditions: for Biofilm (OD 595 nm): 24 hr; for interference with the biofilm readings, in words: 125 μg/ml dose
Protocol: as §1, §2, §3
A stock solution of 500 μg of phenylcapsaicin, capsaicin, compound a, compound b, compound c, was prepared by dissolving 500 μg in 100 μl of ethanol and 900 μl of sterile water. The stock solutions were sequentially diluted with quadruple volumes of solvent (10% aqueous ethanol solution) to yield 125/31.25 (32)/7.81 (8)/1.95 (2) μg/ml test solutions.
as §4, with “BAA1714™” for “BAA 1714™”
Crystal violet staining assay was performed as in Experiment 3, using ATCC® BAA1714™ in 3% DMSO as the control.

[3] = test system: Chromobacterium violaceum CV026; assay: Quorum sensing inhibition, disc-diffusion assay with Chromobacterium violaceum CV026 (QS and antibacterial zones); conditions: for QS (zone of quorum sensing inhibition): disc diffusion, zone past the disk; for zone of inhibition at 7.81 µg/mL / zone of inhibition at 15.63 µg/mL / zone of inhibition at 31.13 µg/mL / zone of inhibition at 62.5 µg/mL / zone of inhibition at 125 µg/mL / zone of inhibition at 250 µg/mL / zone of inhibition at 500 µg/mL: Chromobacterium violaceum
Protocol: Chromobacterium violaceum CV026 is a violacein negative, double mini-Tn5 mutant from C. violaceum (ATCC 31532) that was used to identify quorum sensing inhibition.
A stock solution of 1000 ug of compound V and capsaicin was prepared by dissolving 1000 μg in 100 μl of ethanol and 900 μl of sterile water. The stock solutions were sequentially diluted with double volumes of solvent (10% aqueous ethanol solution) to yield 500/250/125/62.5/31.25/15.625/7.81 μg/ml test solutions.
Chromobacterium violaceum CV026 was used to determine the anti-quorum sensing activity. Inducer N-hexanoyl homoserine lactone (C6-HSL) was purchased from Sigma-Aldrich. CV026 was cultivated in Luria-Bertani (LB) medium (LB, 5 g yeast extract, 10 g tryptone, 5 g NaCl, 1 L water) at 30° C. overnight under aerobic conditions. A standard disc-diffusion assay was used to detect anti-quorum sensing activity of V and capsaicin by making use of double layer culture plates. 15 ml LB medium (2.5% agar) was overlaid with 15 ml LB (1.0% agar) containing 50 μl C. violaceum CV026 with 20 μg/ml-1 kanamycin and 50 ng/ml C6-AHL. Test concentrations of V and capsaicin were added onto sterile disks (8 mm diameter) and placed on the agar. The plates were then incubated overnight at 30° C. and quorum sensing inhibition was detected as a less colored/colourless zone around the disk, where viable cells, indicative of growth but quorum sensing inhibition, were present. Measurements were made from the outer edge of the discs to the edge of the zones of anti-quorum sensing inhibition. The formulation solvent (10% aqueous ethanol) was used as the negative control.
The biosensor strain, C. violaceum CV026, is a mutant of the wild type strain and is unable to produce its own AHL signal. It only responds to exogenous active signal molecules and produces a purple color, violacein. Loss of this purple color around the disk when incubated with exogenous AHL is thus indicative of QS inhibition by the test compounds. More specifically, the zone (mm past the disk) of QS inhibition results in an opaque disc with no purple color but bacterial growth. […] The results are shown below in Table 1, wherein QS denotes quorum sensing.

[4] = CV026, read-out: Antibacterial (zone of growth inhibition)
[5] = CV026, read-out: QS (zone of quorum sensing inhibition)

SMILES	Biofilm (OD 595 nm) ([1]; 7.81 μg/mL)	Biofilm (OD 595 nm) ([1]; 31.125 μg/mL)	biofilm formed (CVSA), in words [1]	Biofilm (OD 595 nm) ([2]; 2 μg/mL, 30° C.)	Biofilm (OD 595 nm) ([2]; 8 μg/mL, 30° C.)	Biofilm (OD 595 nm) ([2]; 32 μg/mL, 30° C.)	interference with the biofilm readings, in words [2]	QS (zone of quorum sensing inhibition) ([3]; 125 μg/mL)	QS (zone of quorum sensing inhibition) ([3]; 250 μg/mL)	QS (zone of quorum sensing inhibition) ([3]; 500 μg/mL)	zone of inhibition at 7.81 µg/mL [3, 4] [mm]	zone of inhibition at 15.63 µg/mL [3, 4] [mm]	zone of inhibition at 31.13 µg/mL [3, 4] [mm]	zone of inhibition at 62.5 µg/mL [3, 4] [mm]	zone of inhibition at 125 µg/mL [3, 4] [mm]	zone of inhibition at 250 µg/mL [3, 4] [mm]	zone of inhibition at 500 µg/mL [3, 4] [mm]	zone of inhibition at 7.81 µg/mL [3, 5] [mm]	zone of inhibition at 15.63 µg/mL [3, 5] [mm]	zone of inhibition at 31.13 µg/mL [3, 5] [mm]	further results
COc1cc(CNC(=O)CCCC/C=C/C(C)C)ccc1O [Capsaicin, (E)-N-(4-hydroxy-3-methoxybenzyl)-8-methylnon-6-enamide, reference compound]	8.5^a OD 595 nm	8.1^a OD 595 nm	did not show any reduction of biofilm formation	8.2	8.6	8.2	antibacterial interference	NO	NO	NO	0	0	0	8	9	14	11	0	0	0	biofilm formation inhibition, conclusion in words ([1]; any dose tested): did not exhibit any biofilm formation inhibition; biofilm formation inhibition activity, in words ([2]; any dose tested (125, 32, 8, 2 μg/ml)): did not show reduction biofilm formation; QS (zone of quorum sensing inhibition) ([3]; 62.5 μg/mL): NO; quorum sensing inhibiting activity (in words) ([3]; non antibacterial doses (31.25/15.625/7.81 μg/ml)): did not exhibit quorum sensing inhibiting activity
COc1cc(CNC(=O)CCCCC#Cc2ccccc2)ccc1O [Phenylcapsaicin, N-[(4-hydroxy-3-methoxyphenyl)methyl]-7-phenylhept-6-ynamide]	2.9^b OD 595 nm	3.2^b OD 595 nm	significantly reduced; also recorded: good inhibitor of biofilm formation	2.5	2.8	3.4	antibacterial interference	NO	NO	NO	0	0	0	3	5	9	10	3	9	11	biofilm formed (CVSA), in words ([2]; 32, 8 and 2 μg/ml, 30° C.): significantly reduced; also recorded: good inhibitor of biofilm formation; quorum sensing inhibiting activity (in words) ([3]; 61.5/31.25/15.625/7.81 μg/ml doses): strong to weak; zone of inhibition at 62.5 µg/mL [3, 5]: 7 mm; antibacterial activity (in words) ([3]; higher doses (500/250/125 μg/ml)): antibacterial activity
